The values that follow come from patent US10266526B2, “Substituted 1,2,3-triazoles as SMYD inhibitors for treating cancer” (EPIZYME, INC., priority 2014, dated 2019).

The target in the first assay is SMYD2 (Homo sapiens (Human), UniProt Q9NRG4). Put plainly: SMYD2 biochemical assay (SMYD2 enzyme assay on peptide substrate, 3H-SAM Flashplate).
Sequence of SMYD2 (Q9NRG4 whole entry): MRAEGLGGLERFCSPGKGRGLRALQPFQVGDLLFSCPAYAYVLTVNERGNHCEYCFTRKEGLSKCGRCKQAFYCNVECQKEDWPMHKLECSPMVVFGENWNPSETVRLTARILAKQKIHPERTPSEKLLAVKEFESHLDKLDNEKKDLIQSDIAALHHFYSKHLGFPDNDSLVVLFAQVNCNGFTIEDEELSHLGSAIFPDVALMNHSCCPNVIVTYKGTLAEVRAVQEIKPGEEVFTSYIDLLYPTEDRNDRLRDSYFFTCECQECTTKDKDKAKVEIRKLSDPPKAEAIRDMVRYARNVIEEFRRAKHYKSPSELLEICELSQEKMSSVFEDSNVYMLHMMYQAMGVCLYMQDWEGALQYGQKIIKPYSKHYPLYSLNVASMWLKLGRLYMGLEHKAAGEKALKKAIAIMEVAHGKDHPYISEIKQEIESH
Settings: not given
Usually IC50 stands for the concentration at which inhibition is half-maximal. `C[C@@H](c1ccccc1)N1C[C@@H](NC(=O)c2cn(C3CC3)nn2)C1(C)C` (racemic) [compound 1026, rac-1-cyclopropyl-N-((R)-2,2-dimethyl-1-((S)-1-phenylethyl)azetidin-3-yl)-1H-1,2,3-triazole-4-carboxamide] showed an IC50 of 910 nM. The same measure, in the same setting: as for `C[C@H](c1ccccc1)N1C[C@@H](NC(=O)c2cn(C3CC3)nn2)C1(C)C` (racemic) [compound 984, rac-1-cyclopropyl-N-((R)-2,2-dimethyl-1-((R)-1-phenylethyl)azetidin-3-yl)-1H-1,2,3-triazole-4-carboxamide], the figure is 18900 nM.

The same assay, now with this note: read-out: SMYD2 Biochem IC50; IC50 values are an average of n = 1 to n = 50.
Turning to `CC(c1ccc2c(c1)NC(=O)CO2)N1CC(NC(=O)c2cn(C3CC3)nn2)C1` (centres unmarked) [compound 774, 1-cyclopropyl-N-{1-[1-(3-oxo-3,4-dihydro-2H-1,4-benzoxazin-6-yl)ethyl]azetidin-3-yl}-1H-1,2,3-triazole-4-carboxamide], the IC50 came out at 1620 nM.

Turning to `COc1ccc(C(C)N2CC(NC(=O)c3cc(C4CC4)cnn3)C2)cc1` (centres unmarked) [compound 856, 5-cyclopropyl-N-{1-[1-(4-methoxyphenyl)ethyl]azetidin-3-yl}pyridazine-3-carboxamide], the 50% inhibitory concentration (IC50) turned out to be 603 nM.

Regarding `COc1c(CO)cccc1CN1CC(NC(=O)c2cn(C3CC3)nn2)C1` [compound 772, 1-cyclopropyl-N-(1-{[3-(hydroxymethyl)-2-methoxyphenyl]methyl}azetidin-3-yl)-1H-1,2,3-triazole-4-carboxamide], the IC50 turned out to be 10800 nM.

As for `O=C(NC1CN(Cc2cnn(Cc3cscn3)c2)C1)c1cn(C2CC2)nn1` [compound 945, 1-cyclopropyl-N-(1-((1-(thiazol-4-ylmethyl)-1H-pyrazol-4-yl)methyl)azetidin-3-yl)-1H-1,2,3-triazole-4-carboxamide], the half-inhibitory concentration (IC50) is 1200 nM. On to `COc1ccc(C(C)N2CC(NC(=O)c3cn(C4CC4)nn3)C2)c(Cl)c1` (centres unmarked) [compound 845, N-{1-[1-(2-chloro-4-methoxyphenyl)ethyl]azetidin-3-yl}-1-cyclopropyl-1H-1,2,3-triazole-4-carboxamide], for which the IC50 stood at 88 nM. On the same count and under the same terms, as for `CC(c1cc(F)cc(Cl)c1)N1CC(NC(=O)c2cn(C3CC3)nn2)C1` (centres unmarked) [compound 714, N-{1-[1-(3-chloro-5-fluorophenyl)ethyl]azetidin-3-yl}-1-cyclopropyl-1H-1,2,3-triazole-4-carboxamide], the figure is 2130 nM; as for `CC(c1cc(Cl)ccc1C(F)(F)F)N1CC(NC(=O)c2cn(C3CC3)nn2)C1` (centres unmarked) [compound 976, N-(1-(1-(5-chloro-2-(trifluoromethyl)phenyl)ethyl)azetidin-3-yl)-1-cyclopropyl-1H-1,2,3-triazole-4-carboxamide], 1800 nM. The same measure, in the same setting: as for `Cn1cnc(CN2CC(NC(=O)c3cn(C4CC4)nn3)C2)c1Cl` [compound 784, N-{1-[(5-chloro-1-methyl-1H-imidazol-4-yl)methyl]azetidin-3-yl}-1-cyclopropyl-1H-1,2,3-triazole-4-carboxamide], the figure is 21000 nM; as for `Cc1nc(C)c(C(C)N2CC(NC(=O)c3cn(C4CC4)nn3)C2)s1` (centres unmarked) [compound 718, 1-cyclopropyl-N-{1-[1-(dimethyl-1,3-thiazol-5-yl)ethyl]azetidin-3-yl}-1H-1,2,3-triazole-4-carboxamide], 2950 nM.

`COc1cccc(OC)c1C(C)N1CC(NC(=O)c2cn(C3CC3)nn2)C1` (centres unmarked) [compound 768, 1-cyclopropyl-N-{1-[1-(2,6-dimethoxyphenyl)ethyl]azetidin-3-yl}-1H-1,2,3-triazole-4-carboxamide]: the IC50 worked out at 1680 nM. Still for that read-out and setting: as for `O=C(NC1CN(C(c2ccccc2)C(F)(F)F)C1)c1cn(C2CC2)nn1` (centres unmarked) [compound 766, 1-cyclopropyl-N-[1-(2,2,2-trifluoro-1-phenylethyl)azetidin-3-yl]-1H-1,2,3-triazole-4-carboxamide], the figure is > 50000 nM; as for `COc1ccc(C(F)(F)F)cc1C(C)N1CC(NC(=O)c2cn(C3CC3)nn2)C1` (centres unmarked) [compound 690, 1-cyclopropyl-N-(1-{1-[2-methoxy-5-(trifluoromethyl)phenyl]ethyl}azetidin-3-yl)-1H-1,2,3-triazole-4-carboxamide], 7990 nM.

As for `CS(=O)(=O)CC(c1ccccc1)N1CC(NC(=O)c2cn(C3CC3)nn2)C1` (centres unmarked) [compound 773, 1-cyclopropyl-N-[1-(2-methanesulfonyl-1-phenylethyl)azetidin-3-yl]-1H-1,2,3-triazole-4-carboxamide], the IC50 is > 50000 nM. Still for that read-out and setting: as for `CC(c1ccc(COc2ccccc2)cc1)N1CC(NC(=O)c2cn(C3CC3)nn2)C1` (centres unmarked) [compound 974, 1-cyclopropyl-N-(1-(1-(4-(phenoxymethyl)phenyl)ethyl)azetidin-3-yl)-1H-1,2,3-triazole-4-carboxamide], the figure is 870 nM.

Take `CC(O)COc1ccc(CN2CC(NC(=O)c3cn(C4CC4)nn3)C2)cc1` (centres unmarked) [compound 822, 1-cyclopropyl-N-(1-{[4-(2-hydroxypropoxy)phenyl]methyl}azetidin-3-yl)-1H-1,2,3-triazole-4-carboxamide]: the 50% inhibitory concentration (IC50) was found to be 1970 nM. Still for that read-out and setting: as for `COc1nn(C)cc1CN1CC(NC(=O)c2cn(C3CC3)nn2)C1` [compound 777, 1-cyclopropyl-N-{1-[(3-methoxy-1-methyl-1H-pyrazol-4-yl)methyl]azetidin-3-yl}-1H-1,2,3-triazole-4-carboxamide], the figure is 5620 nM; as for `O=C(NC1CN(Cc2cn(CCc3ccccc3)cn2)C1)c1cc(C2CC2)cnn1` [compound 838, 5-cyclopropyl-N-(1-{[1-(2-phenylethyl)-1H-imidazol-4-yl]methyl}azetidin-3-yl)pyridazine-3-carboxamide], 496 nM.

As for `O=C(NC1CN(Cc2ccc(OCc3ccccc3)cc2)C1)c1cn(C2CC2)nn1` [compound 802, N-(1-{[4-(benzyloxy)phenyl]methyl}azetidin-3-yl)-1-cyclopropyl-1H-1,2,3-triazole-4-carboxamide], the half-inhibitory concentration (IC50) is 83.4 nM. The same measure, in the same setting: the same measure for `Cn1cc(COc2ccc(CN3CC(NC(=O)c4cn(C5CC5)nn4)C3)cc2)cn1` [compound 1025, 1-cyclopropyl-N-(1-(4-((1-methyl-1H-pyrazol-4-yl)methoxy)benzyl)azetidin-3-yl)-1H-1,2,3-triazole-4-carboxamide]: 1200 nM; for `O=C(NC1CN(C(c2ccc(OCc3ccccc3)cc2)C(F)(F)F)C1)c1cn(C2CC2)nn1` (centres unmarked) [compound 816, N-(1-{1-[4-(benzyloxy)phenyl]-2,2,2-trifluoroethyl}azetidin-3-yl)-1-cyclopropyl-1H-1,2,3-triazole-4-carboxamide]: > 50000 nM; for `O=C(NC1CN(Cc2ccc(C(O)Cc3ccccc3)cc2)C1)c1cn(C2CC2)nn1` (centres unmarked) [compound 983, 1-cyclopropyl-N-(1-(4-(1-hydroxy-2-phenylethyl)benzyl)azetidin-3-yl)-1H-1,2,3-triazole-4-carboxamide]: 1390 nM. On to `CC(c1ccc(OCCCN(C)C)cc1)N1CC(NC(=O)c2cn(C3CC3)nn2)C1` (centres unmarked) [compound 858, 1-cyclopropyl-N-[1-(1-{4-[3-(dimethylamino)propoxy]phenyl}ethyl)azetidin-3-yl]-1H-1,2,3-triazole-4-carboxamide], for which the IC50 was 4790 nM. On the same count and under the same terms, as for `CN(C)CCNC(=O)c1cc(C2CC2)cnn1` [compound 869, 5-cyclopropyl-N-[2-(dimethylamino)ethyl]pyridazine-3-carboxamide], the figure is 21100 nM. Take `CC(=O)Nc1cccc(C(C)N2CC(NC(=O)c3cn(C4CC4)nn3)C2)c1` (centres unmarked) [compound 783, 1-cyclopropyl-N-{1-[1-(3-acetamidophenyl)ethyl]azetidin-3-yl}-1H-1,2,3-triazole-4-carboxamide]: the half-maximal inhibitory concentration (IC50) stood at 3140 nM.

With `CC(c1ccc(=O)[nH]c1)N1CC(NC(=O)c2cn(C3CC3)nn2)C1` (centres unmarked) [compound 994, 1-cyclopropyl-N-(1-(1-(6-oxo-1,6-dihydropyridin-3-yl)ethyl)azetidin-3-yl)-1H-1,2,3-triazole-4-carboxamide], the IC50 came out at 5400 nM. As to `CC(NC(=O)c1cc(C2CC2)cnn1)C1CCCCN1` (centres unmarked) [compound 1003, 5-cyclopropyl-N-(1-(piperidin-2-yl)ethyl)pyridazine-3-carboxamide], the half-inhibitory concentration (IC50) amounted to 19000 nM.

For the molecule `Cc1coc(Cn2cc(CN3CC(NC(=O)c4cn(C5CC5)nn4)C3)cn2)n1` [compound 937, 1-cyclopropyl-N-(1-((1-((4-methyloxazol-2-yl)methyl)-1H-pyrazol-4-yl)methyl)azetidin-3-yl)-1H-1,2,3-triazole-4-carboxamide], the concentration for half-maximal inhibition (IC50) was 120 nM.

As to `O=C(NC1CN(Cc2cnn(Cc3ccccc3)c2)C1)c1nnc(C2CC2)o1` [compound 1021, N-(1-((1-benzyl-1H-pyrazol-4-yl)methyl)azetidin-3-yl)-5-cyclopropyl-1,3,4-oxadiazole-2-carboxamide], the half-maximal inhibitory concentration (IC50) is 65 nM. The same measure, in the same setting: as for `O=C(NC1CNC1)c1cn(C2CC2)nn1` [compound 657, N-(azetidin-3-yl)-1-cyclopropyl-1H-1,2,3-triazole-4-carboxamide], the figure is 10400 nM; as for `O=C(NC1CN(Cc2ccc(Cn3cccn3)cc2)C1)c1cc(C2CC2)cnn1` [compound 954, N-(1-(4-((1H-pyrazol-1-yl)methyl)benzyl)azetidin-3-yl)-5-cyclopropylpyridazine-3-carboxamide], 2400 nM. On the same count and under the same terms, the same measure for `CC(c1ccccc1OCc1ccccc1)N1CC(NC(=O)c2cn(C3CC3)nn2)C1` (centres unmarked) [compound 796, N-(1-{1-[2-(benzyloxy)phenyl]ethyl}azetidin-3-yl)-1-cyclopropyl-1H-1,2,3-triazole-4-carboxamide]: 422 nM.

In the case of `CNCc1cccc(C(C)N2CC(NC(=O)c3cn(C4CC4)nn3)C2)c1OC` (centres unmarked) [compound 835, 1-cyclopropyl-N-[1-(1-(2-methoxy-3-[(methylamino)methyl]phenyl}ethyl)azetidin-3-yl]-1H-1,2,3-triazole-4-carboxamide], the IC50 was 780 nM. Still for that read-out and setting: the same measure for `CC(c1n[nH]c2ccccc12)N1CC(NC(=O)c2cn(C3CC3)nn2)C1` (centres unmarked) [compound 761, 1-cyclopropyl-N-{1-[1-(1H-indazol-3-yl)ethyl]azetidin-3-yl}-1H-1,2,3-triazole-4-carboxamide]: 3210 nM.
